From patent publication US8247448B2, “Butenoic acid derivatives, processes for the preparation thereof, pharmaceutical compositions comprising them, and use for the treatment of dyslipidaemia, atherosclerosis and diabetes” (Merck Patent GmbH, priority 2003, dated 2012)

Columns and labels:
Format in all cases: cell-based
[1] = biological target: T1, chimeric protein PPARα-Gal4 (Homo sapiens, UniProt Q07869); assay: PPAR activation, Gal4 chimera luciferase reporter gene test in co-transfected CV-1 cells; details: 50 μM, CV-1 cells (monkey kidney cells), 18 hours contact
T1 construct: Gal4 (fusion partner); expressed in transfected cells; host or cells: CV-1 cells (monkey kidney cells)
T1 sequence (Q07869 239-466 limits assumed): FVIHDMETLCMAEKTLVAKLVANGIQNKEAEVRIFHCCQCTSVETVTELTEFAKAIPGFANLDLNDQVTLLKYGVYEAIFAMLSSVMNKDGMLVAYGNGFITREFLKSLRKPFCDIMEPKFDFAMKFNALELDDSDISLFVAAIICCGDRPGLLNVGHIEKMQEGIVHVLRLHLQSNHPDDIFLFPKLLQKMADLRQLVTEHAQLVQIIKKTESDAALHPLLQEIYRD
Procedure: (§1) The measurement of the PPAR activation was performed according to a technique described by Lehmann et al. (J. Biol. Chem., 270, (1995), 12953-12956).
(§2) CV-1 cells (monkey kidney cells) are co-transfected with an expression vector for the chimeric proteins PPARα-Gal4 or PPARγ-Gal4 and with a “reporter” plasmid that allows the expression of the luciferase gene placed under the control of a promoter containing Gal4 response elements.
(§3) The cells are plated into 96-well microplates and co-transfected using a commercial reagent with the reporter plasmid (pG5-tk-pGL3) and the expression vector for the chimeric protein ([…]). After incubating for 4 hours, whole culture medium (comprising 10% foetal calf serum) is added to the wells. After 24 hours, the medium is removed and replaced with whole medium comprising the test products (50 μM final). The products are left in contact with the cells for 18 hours. The cells are then lysed and the luciferase activity is measured using a luminometer. A PPAR activation factor can then be calculated by means of activation of the expression of the reporter gene induced by the product (relative to the control cells that have not received any product).

[2] = test system: chimeric protein PPARγ-Gal4; assay: as above; details: 50 μM, CV-1 cells (monkey kidney cells), 18 hours contact
Procedure: as §1, §2, §3

Gal4 alone = assay: Control: luciferase reporter test with vector expressing Gal4 alone (no PPAR ligand binding domain); details: CV-1 cells; in the presence of the product
Procedure: CV-1 cells (monkey kidney cells) are co-transfected with an expression vector for the chimeric proteins PPARα-Gal4 or PPARγ-Gal4 and with a “reporter” plasmid that allows the expression of the luciferase gene placed under the control of a promoter containing Gal4 response elements. The cells are plated into 96-well microplates and co-transfected using a commercial reagent with the reporter plasmid (pG5-tk-pGL3) and the expression vector for the chimeric protein ([…]). After incubating for 4 hours, whole culture medium (comprising 10% foetal calf serum) is added to the wells. After 24 hours, the medium is removed and replaced with whole medium comprising the test products (50 μM final). The products are left in contact with the cells for 18 hours. The cells are then lysed and the luciferase activity is measured using a luminometer. A PPAR activation factor can then be calculated by means of activation of the expression of the reporter gene induced by the product (relative to the control cells that have not received any product). [drawing 12] at a concentration of 50 μM, activates the chimeric protein PPARα-Gal-4 by a factor of 2.3, and the chimeric protein […] by a factor of 6.4. In the absence of the binding domain for the PPAR α or γ ligand (vector expressing Gal4 alone), the luciferase activity measured in the presence of this product is zero.

activation factor of the chimeric protein PPARα-Gal-4 (reporter gene expression relative to control cells) [1]: 2.3 | luciferase activity in the absence of the binding domain for the PPAR α or γ ligand (vector expressing Gal4 alone) (Gal4 alone): zero
Compound: CCOC(=O)C(/C=C/c1ccccc1)Oc1ccccc1 (stereo not drawn)
activation factor of the chimeric protein PPARα-Gal4 (second mention; reporter gene expression relative to control cells) [2]: 6.4
